Assay results taken from patent US20250368627A1, “PYRAZOLESULFONAMIDES AS ANTITUMOR AGENTS” (Peloton Therapeutics, Inc., a fully owned subsidiary of …, priority 2019, published 2025).
pEC50, pIC50: −log10 of the molar value.

Key:
[1] = test system: HCT116 human colorectal carcinoma cells; experiment: CellTiter-Glo Luminescent Cell Viability Assay; format: cell-based; settings: HCT-116, 72 h, 3 days
Experimental: HCT116 human colorectal carcinoma cells were used in these experiments. HCT116 cells were obtained from ATCC. CellTiter-Glo® Luminescent Cell Viability Assay Reagent was obtained from Promega.
About 3,000 cells were seeded into 96-well plate with […] of media (DMEM supplemented with 10% FBS, 100 units penicillin, and […] streptomycin per mL) the day before the experiment. For compound treatment, the master plate was prepared as follows: 100× compound stocks were prepared in a 96-well plate by 1 to 3 serial dilutions of 0.5 mM DMSO stocks. Each master plate contained serial dilution of 8 compounds, including the control compound E7820. […] of 100× compound stock was added to each well of the assay plate to give final concentrations of […]. Each concentration was tested in triplicate. After 3 days, cell viability was determined using CellTiter-Glo Luminescent Cell Viability Assay Reagent following the manufacturer's recommended protocol. Briefly, […] of CellTiter-Glo reagent was added to each well of the assay plate and the contents were mixed for 3 minutes at 600 rpm on a shaker (Thermomixer R). The plate was immediately placed in a plate reader (Synergy 2) and the luminescence signal (0.5 second per well integration time) was determined. IC50 values were calculated using Dotmatics software.

[2] = target: T1, DDB1DB/DCAF15 and RBM39 R1R2 complex (Homo sapiens, UniProt Q14498+Q66K64); experiment: DCAF15 RBM39 Complex Formation Assay (FRET); format: binding; settings: FRET ratio Em 665/Em 615, incubated overnight at 4° C.
T1 construct: Amino acids 150 to 331 of RBM39 were cloned into pGEX4T3; GST (from vector pGEX4T3); TEV cleavage site (N); made in house; host or cells: DDB1DB/His-DCAF15: baculovirus/Sf9 co-expression; RBM39 R1R2: E. coli (pGEX4T3)
From the text: LANCE Eu-W1024 Anti-6×His and SureLight Allophycocyanin-anti-FLAG antibodies were purchased from Perkin Elmer. Human DDB1DB and His-tagged DCAF15 were co-expressed in baculovirus/sf9 system. While full length DDB1 contains three 7-bladed propellers termed A, B, and C, DDB1DB has only propeller A (amino acids 1 to 395) and C (amino acids 709-1140). The His-tagged DCAF15 contains six histidine residues directly preceding the DCAF15 sequence without any linker. An RBM39 fragment containing RRM1 and RRM2 was expressed in E. coli. Amino acids 150 to 331 of RBM39 were cloned into pGEX4T3 with an N-terminal TEV cleavage site and a C-terminal FLAG tag.
A compound of the present disclosure in DMSO (2 μL) was transferred to a 384-well assay plate. Compound was added in 14 points, 3-fold serial dilution (1 μM to 0.6 pico molar) in DMSO. […] FRET assay buffer (25 mM HEPES, pH 7.5, 100 mM NaCl, […], 0.5 mM TCEP, 0.005% Tween-20, 0.2 nM Eu—W1024 Anti-6×His, 50 nM SureLight Allophycocyanin-anti-FLAG, 20 nM DDB1DB/DCAF15, 50 nM RBM39 R1R2) was added and the resulting solution was incubated overnight at 4° C. The plate was placed in a plate reader (Spark 10) with excitation at 1=340 nm and emissions monitored at 1=665 nm and 1=615 nm, and the FRET ratio (Em 665/Em 615) was determined. Low signal controls containing no compound and high signal controls containing 10 mM indisulam were measured for each plate.
EC50 values were calculated using Dotmatics template equation for 4-parameter fit. Results are expressed as % formation using the following equation: […]

T1 sequence (Q66K64 whole entry, the tested form may be a part): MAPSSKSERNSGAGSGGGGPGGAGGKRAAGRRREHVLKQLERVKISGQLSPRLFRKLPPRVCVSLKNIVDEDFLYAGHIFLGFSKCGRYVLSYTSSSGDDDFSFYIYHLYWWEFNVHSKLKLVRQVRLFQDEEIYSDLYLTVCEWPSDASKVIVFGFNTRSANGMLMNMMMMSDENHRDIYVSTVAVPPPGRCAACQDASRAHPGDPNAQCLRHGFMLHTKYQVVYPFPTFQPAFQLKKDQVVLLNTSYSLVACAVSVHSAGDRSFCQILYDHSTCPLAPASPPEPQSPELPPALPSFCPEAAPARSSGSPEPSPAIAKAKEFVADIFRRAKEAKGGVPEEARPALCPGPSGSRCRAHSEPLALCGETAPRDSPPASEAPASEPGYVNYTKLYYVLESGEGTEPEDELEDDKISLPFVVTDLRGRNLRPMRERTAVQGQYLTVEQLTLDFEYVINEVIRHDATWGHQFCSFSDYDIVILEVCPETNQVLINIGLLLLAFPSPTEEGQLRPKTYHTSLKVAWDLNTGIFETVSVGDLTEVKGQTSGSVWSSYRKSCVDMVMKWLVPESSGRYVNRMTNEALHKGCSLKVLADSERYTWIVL
T1 sequence (Q14498 150-331): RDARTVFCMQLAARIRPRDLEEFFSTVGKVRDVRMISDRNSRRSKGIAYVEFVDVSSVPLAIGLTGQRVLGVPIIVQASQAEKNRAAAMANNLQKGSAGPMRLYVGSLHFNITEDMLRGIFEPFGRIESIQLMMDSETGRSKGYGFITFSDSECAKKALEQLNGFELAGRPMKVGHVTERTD
T1 sequence (Q16531 with tags, fused parts or gaps DEL396-708 partner): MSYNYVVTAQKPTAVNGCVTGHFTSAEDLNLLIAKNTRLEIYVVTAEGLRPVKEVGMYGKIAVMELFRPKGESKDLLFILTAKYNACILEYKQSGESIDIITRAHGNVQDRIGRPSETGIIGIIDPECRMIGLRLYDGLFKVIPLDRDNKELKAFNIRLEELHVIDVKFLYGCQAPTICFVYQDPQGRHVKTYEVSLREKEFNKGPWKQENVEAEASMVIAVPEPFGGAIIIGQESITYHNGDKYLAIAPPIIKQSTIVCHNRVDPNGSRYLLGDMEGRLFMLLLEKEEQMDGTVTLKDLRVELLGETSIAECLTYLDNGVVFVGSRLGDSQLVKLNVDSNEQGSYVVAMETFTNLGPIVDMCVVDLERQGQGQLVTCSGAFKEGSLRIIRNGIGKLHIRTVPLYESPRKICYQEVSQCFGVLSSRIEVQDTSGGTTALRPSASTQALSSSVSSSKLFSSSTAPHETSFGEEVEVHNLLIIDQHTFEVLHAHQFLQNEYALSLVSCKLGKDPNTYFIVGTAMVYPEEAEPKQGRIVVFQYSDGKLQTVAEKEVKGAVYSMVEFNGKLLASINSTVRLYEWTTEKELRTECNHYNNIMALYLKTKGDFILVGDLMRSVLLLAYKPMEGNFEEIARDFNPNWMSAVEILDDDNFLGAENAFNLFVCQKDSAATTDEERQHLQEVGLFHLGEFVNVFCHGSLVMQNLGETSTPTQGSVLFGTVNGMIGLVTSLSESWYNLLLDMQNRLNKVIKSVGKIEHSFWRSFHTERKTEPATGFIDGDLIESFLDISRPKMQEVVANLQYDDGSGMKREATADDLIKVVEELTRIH

pEC50 [1] | pIC50 [2] | Structure (SMILES)
6.00 to 6.60 | > 6.60 | Cn1cc(S(=O)(=O)Nc2cccc3c(Cl)c[nH]c23)cn1 [Compound 1, N-(3-chloro-1H-indol-7-yl)-1-methyl-1H-pyrazole-4-sulfonamide]
 | < 6.00 | Cc1nn(C)c(C)c1S(=O)(=O)Nc1cccc2c(Cl)c[nH]c12 [Compound 2, N-(3-chloro-1H-indol-7-yl)-1,3,5-trimethyl-pyrazole-4-sulfonamide]
 | > 6.60 | CCn1cc(S(=O)(=O)Nc2cccc3c(Cl)c[nH]c23)cn1 [Compound 4, N-(3-chloro-1H-indol-7-yl)-1-ethyl-pyrazole-4-sulfonamide]
 | 6.00 to 6.60 | Cc1nn(C)cc1S(=O)(=O)Nc1cccc2c(Cl)c[nH]c12 [Compound 5, N-(3-chloro-1H-indol-7-yl)-1,3-dimethyl-pyrazole-4-sulfonamide]
6.00 to 6.60 | > 6.60 | O=S(=O)(Nc1cccc2c(Cl)c[nH]c12)c1cnn(C(F)F)c1 [Compound 6, N-(3-chloro-1H-indol-7-yl)-1-(difluoromethyl)pyrazole-4-sulfonamide]
6.00 to 6.60 | > 6.60 | O=S(=O)(Nc1cccc2c(Cl)c[nH]c12)c1cnn(CC(F)F)c1 [Compound 7, N-(3-chloro-1H-indol-7-yl)-1-(2,2-difluoroethyl)pyrazole-4-sulfonamide]
 | > 6.60 | O=S(=O)(Nc1cccc2c(Cl)c[nH]c12)c1cnn(C2CCOC2)c1 (stereo not shown) [Compound 8, N-(3-chloro-1H-indol-7-yl)-1-tetrahydrofuran-3-yl-pyrazole-4-sulfonamide]
6.00 to 6.60 | > 6.60 | CS(=O)(=O)CCn1cc(S(=O)(=O)Nc2cccc3c(Cl)c[nH]c23)cn1 [Compound 9, N-(3-chloro-1H-indol-7-yl)-1-(2-methylsulfonylethyl)pyrazole-4-sulfonamide]
 | > 6.60 | O=S(=O)(Nc1cccc2c(Cl)c[nH]c12)c1cn[nH]c1 [Compound 10, N-(3-chloro-1H-indol-7-yl)-1H-pyrazole-4-sulfonamide]
6.00 to 6.60 | > 6.60 | Cc1ccc(NS(=O)(=O)c2cnn(C(F)F)c2)c2[nH]cc(C#N)c12 [Compound 11, N-(3-cyano-4-methyl-1H-indol-7-yl)-1-(difluoromethyl)pyrazole-4-sulfonamide]
6.00 to 6.60 | > 6.60 | CC(C)(C)OC(=O)N1CC(n2cc(S(=O)(=O)Nc3cccc4c(Cl)c[nH]c34)cn2)C1 [Compound 12, tert-butyl 3-[4-[(3-chloro-1H-indol-7-yl)sulfamoyl]pyrazol-1-yl]azetidine-1-carboxylate]
6.00 to 6.60 | > 6.60 | O=S(=O)(Nc1cccc2c(Cl)c[nH]c12)c1cnn(CCO)c1 [Compound 13, N-(3-chloro-1H-indol-7-yl)-1-(2-hydroxyethyl)pyrazole-4-sulfonamide]
< 6.00 | > 6.60 | N#CCn1cc(S(=O)(=O)Nc2cccc3c(Cl)c[nH]c23)cn1 [Compound 14, N-(3-chloro-1H-indol-7-yl)-1-(cyanomethyl)pyrazole-4-sulfonamide]
< 6.00 | > 6.60 | O=S(=O)(Nc1cccc2c(Cl)c[nH]c12)c1cnn(-c2ncc(Cl)cc2F)c1 [Compound 15, 1-(5-chloro-3-fluoro-2-pyridyl)-N-(3-chloro-1H-indol-7-yl)pyrazole-4-sulfonamide]
6.00 to 6.60 | > 6.60 | NC(=O)Cn1cc(S(=O)(=O)Nc2cccc3c(Cl)c[nH]c23)cn1 [Compound 16, 2-[4-[(3-chloro-1H-indol-7-yl)sulfamoyl]pyrazol-1-yl]acetamide]
6.00 to 6.60 | > 6.60 | NC(=O)Cn1cc(S(=O)(=O)n2cc(S(=O)(=O)Nc3cccc4c(Cl)c[nH]c34)cn2)cn1 [Compound 17, 2-[4-[4-[(3-chloro-1H-indol-7-yl)sulfamoyl]pyrazol-1-yl]sulfonylpyrazol-1-yl]acetamide]

pEC50 [1] | pIC50 [2] | Structure (SMILES)
< 6.00 | 6.00 to 6.60 | O=S(=O)(Nc1cccc2c(Cl)c[nH]c12)c1cnn(C2CNC2)c1 [Compound 18, 1-(azetidin-3-yl)-N-(3-chloro-1H-indol-7-yl)pyrazole-4-sulfonamide]
6.00 to 6.60 | > 6.60 | O=S(=O)(Nc1cccc2c(Cl)c[nH]c12)c1cnn(S(=O)(=O)c2cn[nH]c2)c1 [Compound 19, N-(3-chloro-1H-indol-7-yl)-1-(1H-pyrazol-4-ylsulfonyl)pyrazole-4-sulfonamide]
< 6.00 | 6.00 to 6.60 | O=S(=O)(Nc1cccc2c(Cl)c[nH]c12)c1cnn(C2CCOCC2)c1 [Compound 20, N-(3-chloro-1H-indol-7-yl)-1-tetrahydropyran-4-yl-pyrazole-4-sulfonamide]
< 6.00 | 6.00 to 6.60 | O=S(=O)(Nc1cccc2c(Cl)c[nH]c12)c1cnn(-c2ccc(F)cn2)c1 [Compound 21, N-(3-chloro-1H-indol-7-yl)-1-(5-fluoro-2-pyridyl)pyrazole-4-sulfonamide]
 | < 6.00 | O=S(=O)(c1cnn(CC2CC2)c1)N(CC1CC1)c1cccc2c(Cl)c[nH]c12 [Compound 48, N-(3-chloro-1H-indol-7-yl)-N,1-bis(cyclopropylmethyl)pyrazole-4-sulfonamide]
 | < 6.00 | COCCN(c1cccc2c(Cl)c[nH]c12)S(=O)(=O)c1cnn(CCOC)c1 [Compound 50, N-(3-chloro-1H-indol-7-yl)-N,1-bis(2-methoxyethyl)pyrazole-4-sulfonamide]
 | < 6.00 | Cn1cc(S(=O)(=O)Nc2ccc(F)c3cc[nH]c23)cn1 [Compound 55, N-(4-fluoro-1H-indol-7-yl)-1-methyl-pyrazole-4-sulfonamide]
 | < 6.00 | O=S1(=O)CC(n2cc(S(=O)(=O)Nc3cccc4c(Cl)c[nH]c34)cn2)C1 [Compound 58, N-(3-chloro-1H-indol-7-yl)-1-(1,1-dioxothietan-3-yl)pyrazole-4-sulfonamide]
 | 6.00 to 6.60 | Cc1ccc(NS(=O)(=O)c2cnn(C)c2C#N)c2[nH]cc(C#N)c12 [Compound 131, 5-cyano-N-(3-cyano-4-methyl-1H-indol-7-yl)-1-methyl-pyrazole-4-sulfonamide]
 | 6.00 to 6.60 | Cn1ncc(S(=O)(=O)Nc2ccc(Cl)c3c(C#N)c[nH]c23)c1C#N [Compound 132, N-(4-chloro-3-cyano-1H-indol-7-yl)-5-cyano-1-methyl-pyrazole-4-sulfonamide]
 | > 6.60 | N#Cc1n[nH]c2c(NS(=O)(=O)c3cnn([C@H](CO)CF)c3)ccc(Cl)c12 [Compound 310, N-(4-chloro-3-cyano-1H-indazol-7-yl)-1-[(1R)-1-(fluoromethyl)-2-hydroxy-ethyl]pyrazole-4-sulfonamide]
 | > 6.60 | Cc1ccc(NS(=O)(=O)c2cnn([C@H](CO)CF)c2)c2[nH]cc(C#N)c12 [Compound 313, N-(3-cyano-4-methyl-1H-indol-7-yl)-1-[(1R)-1-(fluoromethyl)-2-hydroxy-ethyl]pyrazole-4-sulfonamide]
 | > 6.60 | Cc1ccc(NS(=O)(=O)c2cnn([C@H](CO)CF)c2)c2[nH]nc(C#N)c12 [Compound 314, N-(3-cyano-4-methyl-1H-indazol-7-yl)-1-[(1R)-1-(fluoromethyl)-2-hydroxy-ethyl]pyrazole-4-sulfonamide]
 | > 6.60 | Cc1ccc(NS(=O)(=O)c2cnn(C(C)(C)CO)c2N)c2[nH]cc(C#N)c12 [Compound 315, 5-amino-N-(3-cyano-4-methyl-1H-indol-7-yl)-1-(2-hydroxy-1,1-dimethyl-ethyl)pyrazole-4-sulfonamide]
 | > 6.60 | CC(C)(CO)n1ncc(S(=O)(=O)Nc2ccc(Cl)c3c(C#N)c[nH]c23)c1N [Compound 316, 5-amino-N-(4-chloro-3-cyano-1H-indol-7-yl)-1-(2-hydroxy-1,1-dimethyl-ethyl)pyrazole-4-sulfonamide]
